Results as given in patent US20190255023A1, “COMBINATION THERAPY COMPRISING A THIAZOLE AND A CORTICOSTEROID TO TREAT SKIN CONDITIONS” (priority 2016, published 2019).

Tested on: immortalized keratinocyte cell line HaCaT
Assay: Resazurin assay, HaCaT cell viability / proliferation
Format: cell-based, human
Settings: for suboptimal dose of reduced viability: single agent dose response, HaCaT, 24 hours (FIG. 1)
Protocol: The spontaneously immortalized, nontumorigenic skin keratinocyte cell line HaCaT was maintained in DMEM supplemented with 5% (v/v) FBS, 0.3 mg/ml glutamine and 0.1 mg/ml gentamicin at 37° C. with 5% CO2 in a humidified atmosphere. Subculture using trypsin-EDTA was performed every 3-4 days with split ratio of 1:3-1:4 to ensure actively proliferating cells.
Cells were seeded in 96 well plates in fully supplemented medium at a density of 3000 cells per well. […] Next day, the cells were treated with cPLA2α inhibitor Compound B, Compound A, vitamin D analogue Calcipotriol and corticosteroid hormone receptor agonist Betamethasone dipropionate for 24 hours. Resazurin was added next day according to the manufacturer's instruction (RnD Systems, UK) and left to incubate for […] in incubator at 37° C. with 5% CO2 in a humidified atmosphere before fluorescence was read at 544 nm excitation and 590 nm emission wavelength. The cells were observed under the microscope to evaluate possible morphology changes and signs of stress before addition of resazurin. The experiments were performed in series of 8 wells per treatment and repeated 3 times.

Structure (SMILES)	suboptimal dose of reduced viability	concentration up to which Hacat keratinocytes show resistance (single agent dose response (FIG. 1c), little effect seen attributed to solvent DMSO)
CCCCCCCOc1ccc(OCC(=O)c2nc(C(=O)OC)cs2)cc1 [Compound A1]	10 µM	–
C[C@H]1C[C@H]2[C@@H]3CCC4=CC(=O)C=C[C@]4(C)[C@@]3(F)[C@@H](O)C[C@]2(C)[C@@]1(O)C(=O)CO [Betamethasone]	50 µM	up to 200 μM
